Among the data in patent US7700624B2, “3-aminocyclopentanecrboxamides as modulators of chemokine receptors” (Incyte Corporation, priority 2005, dated 2010) are IC50 values, retold here.

Structures are written as SMILES.

The test has as its target T1, CCR2 (Homo sapiens, UniProt P41597).
T1 construct: Peripheral Blood Mononuclear Cells (PBMCs) prepared from normal human whole blood via density gradient centrifugation; endogenous in cells; host or cells: human PBMCs from normal whole blood
T1 sequence (P41597 1-360 isoform P41597-2): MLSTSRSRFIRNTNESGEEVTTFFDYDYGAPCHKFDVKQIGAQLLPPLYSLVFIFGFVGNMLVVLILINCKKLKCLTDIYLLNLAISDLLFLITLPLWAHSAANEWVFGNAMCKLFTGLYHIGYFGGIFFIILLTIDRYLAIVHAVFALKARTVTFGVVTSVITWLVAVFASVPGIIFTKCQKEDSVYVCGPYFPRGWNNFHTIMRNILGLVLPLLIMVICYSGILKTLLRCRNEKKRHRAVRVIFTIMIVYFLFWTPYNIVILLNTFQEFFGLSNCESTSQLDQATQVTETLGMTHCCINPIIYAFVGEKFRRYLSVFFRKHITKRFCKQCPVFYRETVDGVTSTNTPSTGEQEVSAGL
In words: CCR2 binding assay: 125I-labeled MCP-1 binding to human PBMCs. The settings on record: inhibition of specific binding of 0.1 to 0.2 nM 125I-labeled MCP-1 to human PBMCs, 30 min at room temperature. An excerpt: The CCR2 antagonist activity of compounds of the invention can be reported as the inhibitor concentration required for 50% inhibition (IC50 values) of specific binding in receptor binding assays using ^125I-labeled MCP-1, as ligand, and Peripheral Blood Mononuclear Cells (PBMCs) prepared from normal human whole blood via density gradient centrifugation. Specific binding is preferably defined as the total binding (e.g., total cpm on filters) minus the non-specific binding. Non-specific binding is defined as the amount of cpm still detected in the presence of excess unlabeled competitor (e.g., MCP-1).
Human PBMCs are used to test compounds of the invention in a binding assay. For example, 200,000 to 500,000 cells are incubated with 0.1 to 0.2 nM ^125I-labeled MCP-1, with or without unlabeled competitor (10 nM MCP-1) or various concentrations of compounds to be tested. ^125I-labeled MCP-1, are prepared by suitable methods or purchased from commercial vendors (Perkin Elmer, Boston Mass.). The binding reactions are performed in 50 to 250 μL of a binding buffer consisting of […] pH 7.2, and 0.1% BSA (bovine serum albumin), for 30 min at room temperature. The binding reactions are terminated by harvesting the membranes by rapid filtration through glass fiber filters (Perkin Elmer) which is presoaked in 0.3% polyethyleneimine or Phosphate Buffered Saline (PBS). The filters were rinsed with approximately 600 μL of binding buffer containing 0.5 M NaCl or PBS, then dried, and the amount of bound radioactivity is determined by counting on a Gamma Counter (Perkin Elmer).
With `CC(C)[C@]1(C(=O)N2CCN(c3cc(C(F)(F)F)ccn3)CC2)CC[C@@H](N(C)C2CCOC2)C1` (stereo partly drawn) [Example 24, N-[(1R,3S)-3-isopropyl-3-({4-[4-(trifluoromethyl)pyridin-2-yl]piperazin-1-yl}carbonyl)cyclopentyl]—N-methyltetrahydrofuran-3-amine], the IC50 – broadly, the concentration needed to halve the response being measured – was 181 nM. `CC(C)[C@]1(C(=O)N2CCN(c3cc(C(F)(F)F)ccn3)CC2)CC[C@@H](NCc2ccc3[nH]ccc3c2)C1` [Example 26, (1R,3S)-N-(1H-indol-5-ylmethyl)-3-isopropyl-3-({4-[4-(trifluoromethyl)pyridin-2-yl]piperazin-1-yl}carbonyl)cyclopentanamine]: the half-maximal inhibitory concentration (IC50) stood at 273 nM. In the case of `COc1cc(CN[C@@H]2CC[C@@](C(=O)N3CCN(c4cc(C(F)(F)F)ccn4)CC3)(C(C)C)C2)ccc1C` [Example 31, (1R,3S)-3-isopropyl-N-(3-methoxy-4-methylbenzyl)-3-({4-[4-(trifluoromethyl)pyridin-2-yl]piperazin-1-yl}carbonyl)cyclopentanamine] it was 334 nM; in that of `CC(C)[C@]1(C(=O)N2CCN(c3cc(C(F)(F)F)ccn3)CC2)CC[C@@H](NC2CCc3cc(F)cc(F)c3C2)C1` (mixture of isomers) [Example 18, 6,8-difluoro-N-[(1R,3S)-3-isopropyl-3-({4-[4-(trifluoromethyl)pyridin-2-yl]piperazin-1-yl}carbonyl)cyclopentyl]-1234-tetrahydronaphthalen-2-amine], 51.7 nM; in that of `CC1COCC(C)C1N[C@@H]1CC[C@@](C(=O)N2CCN(c3cc(C(F)(F)F)ccn3)CC2)(C(C)C)C1` (stereo partly drawn) [Example 21, N-[(1R,3S)-3-isopropyl-3-({4-[4-(trifluoromethyl)pyridin-2-yl]piperazin-1-yl}carbonyl)cyclopentyl]-35-dimethyltetrahydro-2H-pyran-4-amine], 10.1 nM. In the case of `CC(CCn1cccn1)N[C@@H]1CC[C@@](C(=O)N2CCN(c3cc(C(F)(F)F)ccn3)CC2)(C(C)C)C1` (mixture of isomers) [Example 22, (1R,3S)-3-isopropyl-N-[1-methyl-3-(1H-pyrazol-1-yl)propyl]-3-({4-[4-(trifluoromethyl)pyridin-2-yl]piperazin-1-yl}carbonyl)cyclopentanamine], the 50% inhibitory concentration (IC50) is 504 nM.

In turn, `CC(C)[C@]1(C(=O)N2CCN(c3cc(C(F)(F)F)ccn3)CC2)CC[C@@H](NC2CCCC2)C1` [Example 16, (1R,3S)-N-cyclopentyl-3-isopropyl-3-({4-[4-(trifluoromethyl)pyridin-2-yl]piperazin-1-yl}carbonyl)cyclopentanamine] gave an IC50 of 227 nM. Turning to `CC(C)[C@]1(C(=O)N2CCN(c3cc(C(F)(F)F)ccn3)CC2)CC[C@@H](NCc2ccc(O)cc2)C1` [Example 27, 4-({[(1R,3S)-3-isopropyl-3-({4-[4-(trifluoromethyl)pyridin-2-yl]piperazin-1-yl}carbonyl)cyclopentyl]amino}methyl)phenol], the IC50 worked out at 470 nM.

For the molecule `CC(C)[C@]1(C(=O)N2CCN(c3cc(C(F)(F)F)ccn3)CC2)CC[C@@H](NCc2ccc(F)cc2)C1` [Example 28, (1R,3S)-N-(4-fluorobenzyl)-3-isopropyl-3-({4-[4-(trifluoromethyl)pyridin-2-yl]piperazin-1-yl}carbonyl)cyclopentanamine], the IC50 turned out to be 389 nM. Take `CC#CCN1CCC(N[C@@H]2CC[C@@](C(=O)N3CCN(c4cc(C(F)(F)F)ccn4)CC3)(C(C)C)C2)CCC1=O` (mixture of isomers) [Example 12, 1-but-2-yn-1-yl-5-{[(1R,3S)-3-isopropyl-3-({4-[4-(trifluoromethyl)pyridin-2-yl]piperazin-1-yl}carbonyl)cyclopentyl]amino}azepan-2-one]: the concentration for half-maximal inhibition (IC50) turned out to be 660 nM. For the molecule `CC(C)[C@]1(C(=O)N2CCN(c3cc(C(F)(F)F)ccn3)CC2)CC[C@@H](NCc2cnc3c(c2)NC(=O)CO3)C1` [Example 9, 7-({[(1R,3S)-3-isopropyl-3-({4-[4-(trifluoromethyl)pyridin-2-yl]piperazin-1-yl}carbonyl)cyclopentyl]amino}methyl)-1H-pyrido[23-b][14]oxazin-2(3H)-one], the IC50 worked out at 338 nM. In turn, `CC(C)[C@]1(C(=O)N2CCN(c3cc(C(F)(F)F)ccn3)CC2)CC[C@@H](NC2Cc3ccccc3C2)C1` [Example 14, N-[(1R,3S)-3-isopropyl-3-({4-[4-(trifluoromethyl)pyridin-2-yl]piperazin-1-yl}carbonyl)cyclopentyl]indan-2-amine] came in with an IC50 of 74.8 nM. In the case of `CCn1cc(CN[C@@H]2CC[C@@](C(=O)N3CCN(c4cc(C(F)(F)F)ccn4)CC3)(C(C)C)C2)cn1` [Example 7, (1R,3S)-N-[(1-ethyl-1H-pyrazol-4-yl)methyl]-3-isopropyl-3-({4-[4-(trifluoromethyl)pyridin-2-yl]piperazin-1-yl}carbonyl)cyclopentanamine] it was 617 nM; in that of `CC(C)[C@]1(C(=O)N2CCN(c3cc(C(F)(F)F)ccn3)CC2)CC[C@@H](NC2CCC(O)(c3ccc(-c4ncccn4)cn3)CC2)C1` (stereo partly shown) [Example 1, 4-{[(1R3S)-3-isopropyl-3-({4-[4-(trifluoromethyl)pyridin-2-yl]piperazin-1-yl}carbonyl)cyclopentyl]amino}-1-(5-pyrimidin-2-ylpyridin-2-yl)cyclohexanol], 19.8 nM.

As to `COc1ccc(CN[C@@H]2CC[C@@](C(=O)N3CCN(c4cc(C(F)(F)F)ccn4)CC3)(C(C)C)C2)c(OC)c1` [Example 10, (1R,3S)-N-(24-dimethoxybenzyl)-3-isopropyl-3-({4-[4-(trifluoromethyl)pyridin-2-yl]piperazin-1-yl}carbonyl)cyclopentanamine], the half-maximal inhibitory concentration (IC50) stood at 519 nM. The result for `CC(C)[C@]1(C(=O)N2CCN(c3cc(C(F)(F)F)ccn3)CC2)CC[C@@H](NCc2ccc3c(c2)OCC(=O)N3)C1` [Example 30, 6-({[(1R,3S)-3-isopropyl-3-({4-[4-(trifluoromethyl)pyridin-2-yl]piperazin-1-yl}carbonyl)cyclopentyl]amino}methyl)-2H-14-benzoxazin-3(4H)-one] reads 364 nM. Molecule `COc1ccc(CN[C@@H]2CC[C@@](C(=O)N3CCN(c4cc(C(F)(F)F)ccn4)CC3)(C(C)C)C2)cc1O` [Example 29, 5-({[(1R,3S)-3-isopropyl-3-({4-[4-(trifluoromethyl)pyridin-2-yl]piperazin-1-yl}carbonyl)cyclopentyl]amino}methyl)-2-methoxyphenol] yielded an IC50 of 736 nM. The result for `CCCNC(=O)CCC1CCCC1N[C@@H]1CC[C@@](C(=O)N2CCN(c3cc(C(F)(F)F)ccn3)CC2)(C(C)C)C1` (stereo partly drawn) [Example 17, 3-(2-{[(1R,3S)-3-isopropyl-3-({4-[4-(trifluoromethyl)pyridin-2-yl]piperazin-1-yl}carbonyl)cyclopentyl]amino}cyclopentyl)-N-propylpropanamide] reads 190 nM. For `CC1OCCC1N[C@@H]1CC[C@@](C(=O)N2CCN(c3cc(C(F)(F)F)ccn3)CC2)(C(C)C)C1` (stereo partly drawn) [Example 20, 2,5-anhydro-1,3,4-trideoxy-3-{[(1R,3S)-3-isopropyl-3-({4-[4-(trifluoromethyl)pyridin-2-yl]piperazin-1-yl}carbonyl)cyclopentyl]amino}pentitol], the concentration for half-maximal inhibition (IC50) was found to be 80.6 nM. `CC(C)NC(=O)CCC1CCCC1N[C@@H]1CC[C@@](C(=O)N2CCN(c3cc(C(F)(F)F)ccn3)CC2)(C(C)C)C1` (stereo partly drawn) [Example 13, N-isopropyl-3-(2-{[(1R,3S)-3-isopropyl-3-({4-[4-(trifluoromethyl)pyridin-2-yl]piperazin-1-yl}carbonyl)cyclopentyl]amino}cyclopentyl)propanamide] returned an IC50 of 273 nM. In turn, `CC(C)[C@]1(C(=O)N2CCN(c3cc(C(F)(F)F)ccn3)CC2)CC[C@@H](NC2CCOC2)C1` (mixture of isomers) [Example 23, N-[(1R-3S)-3-isopropyl-3-({4-[4-(trifluoromethyl)pyridin-2-yl]piperazin-1-yl}carbonyl)cyclopentyl]tetrahydrofuran-3-amine] showed a 50% inhibitory concentration (IC50) of 157 nM. Molecule `CC(C)[C@]1(C(=O)N2CCN(c3cc(C(F)(F)F)ccn3)CC2)CC[C@@H](NC2CCS(=O)(=O)CC2)C1` [Example 15, N-[(1R-3S)-3-isopropyl-3-({4-[4-(trifluoromethyl)pyridin-2-yl]piperazin-1-yl}carbonyl)cyclopentyl]tetrahydro-2H-thiopyran-4-amine 11-dioxide] yielded an IC50 of 541 nM.
